Assay results: US9133180B2, “Aurora and FLT3 kinases modulators” (SAREUM LIMITED, priority 2012, dated 2015)

Columns and labels:
[1] = test system: HCT-116; test: Polyploid phenotype in HCT-116 cells; type: cell-based, human
Experimental: The anti-proliferative activities of compounds of the invention are determined by measuring the ability of the compounds to inhibit the growth of the colorectal cancer derived cell-line HCT-116. Inhibition of cell growth is measured using the Alamar Blue assay (Nociari et al., Journal of Immunological Methods (1998) 213, 157-167). The method is based on the ability of viable cells to reduce resazurin to its fluorescent product resorufin. For each proliferation assay cells are plated onto 96 well plates and allowed to recover for 16 hours prior to the addition of inhibitor compounds for a further 96 hours. At the end of the incubation period 10% (v/v) Alamar Blue is added and incubated for a further 6 hours prior to determination of fluorescent product at Excitation 535 nm and Emission 590 nm. All cell lines are obtained from ECACC (European Collection of cell Cultures).
The activities of the compounds of the invention against the human colorectal cancer cell line HCT-116 are shown the in the table below. The column headed HCT-116 96 Hrs refers to the concentration of compound required to reduce the proliferation of HCT-116 cells by 50% following a 96 h period of exposure. The column headed [Polyploidy] refers to the lowest concentration of compound required to produce a distinct polyploid phenotype, believed to be due to Aurora B inhibition.

[2] = Body weight / tolerability in MV4-11-bearing nude mice; type: in vivo, Balb/c nude mouse
Experimental: (§1) A total of 52 female nude mice were used. The mice were allowed 3 days of acclimatization period before starting the experiment. Mice were implanted subcutaneously (s.c.) with 200 μl of 1×10^7MV4-11 tumour cells in 50% Matrigel in the right flank at the beginning of the study. When tumours reached an average volume of 100-150 mm^3, 32 mice out of the 52 were selected based on tumour volume, and randomly assigned to 4 groups prior to dosing. Each treatment group consisted of 8 tumour-bearing animals (n=8/group).
(§2) A comparison group of mice were treated with cytarabine once daily for 5 days on, 2 days off, for 4 cycles.
(§3) Mice were weighed at each dosing and the tumour sizes recorded twice each week. Mice were observed closely for any overt signs of adverse, treatment-related side effects and these were recorded if and when they were observed.
(§4) Mice were euthanized by CO2 exposure after 4-cycle dose. The tumour volume, weight of dissected tumours, and the mouse body weight were measured and recorded. The tumour inhibitory rate (IR) was calculated by the formula IR=(WV−WT)/WV×100%.

[3] = test system: MV4-11 xenograft tumors; test: MV4-11 xenograft study in nude mice; type: in vivo, Balb/c nude mouse; conditions: 4 cycles; for tumour inhibitory rate (IR): 5 days on, 2 day off, tumour weight at end point
Text: The in vivo antitumour activity of compounds of the invention was investigated by examining the effect of the compounds of Examples 2 and 7 on tumour growth in a nude mouse xenograft model of the MV4-11 cancer cell line.
MV4-11 cell line (ATCC, USA); RPMI 1640 medium (Invitrogen, USA); FBS (Invitrogen, Australia); Balb/c nude mouse (Slac Laboratory Animal Co., Ltd., Shanghai, China): female, 18-22 g; HP-6-CD (Sigma, USA).
as §1, §2, §3
The tumour size was measured twice weekly in two dimensions using calipers, and the volume was expressed in mm^3 using the formula: V=0.5 a×b^2 where a and b were the long and short diameters of the tumour, respectively.
as §4
The differences in tumour size between the groups were analyzed for significance using the unpaired two-tailed Student's t-test. P<0.05 was considered to be statistically significant.

[4] = molecular target: FLT3 kinase (Homo sapiens (Human), UniProt P36888); test: FLT3 kinase 33P-ATP filter assay (Reaction Biology Corp.); type: biochemical
Experimental: (§5) The ability of the compounds of the invention to inhibit FLT3 kinase and Aurora A and Aurora B kinases was determined using the assays described below.
(§6) Kinase assays were performed at Reaction Biology Corp., Malvern, Pa., USA, using the following general procedure:
(§7) 1) Prepare indicated substrate in freshly prepared Base Reaction Buffer (20 mM Hepes pH 7.5, 10 mM MgCl2, 1 mM EGTA, 0.02% Brij35, 0.02 mg/ml BSA, 0.1 mM Na3VO4, 2 mM DTT, 1% DMSO).
(§8) 2) Deliver cofactors (1.5 mM CaCl2, 16 ug/mL Calmodulin, 2 mM MnCl2) to the substrate solution above.
(§9) 3) Deliver indicated kinase into the substrate solution and gently mix
(§10) 4) Deliver varying concentrations of test compound in DMSO into the kinase reaction mixture.
(§11) 5) Deliver ^33P-ATP (specific activity 0.01 µCi/µL final) into the reaction mixture to initiate the reaction.
(§12) 6) Incubate kinase reaction for 120 min at room temperature.
(§13) 7) Reactions are spotted onto P81 ion exchange filter paper (Whatman #3698-915)
(§14) 8) Unbound phosphate is removed by washing filters extensively in 0.75% phosphoric acid.
(§15) 9) ^33P signal was determined using Typhoon phosphorimagers (GE Healthcare).
(§16) Substrates: Kemptide=[H-LRRASLG] Abltide=[[…]]

[5] = molecular target: Aurora B kinase (Homo sapiens (Human), UniProt Q96GD4); test: Aurora B kinase 33P-ATP filter assay (Reaction Biology Corp.); type: biochemical
Experimental: as §5, §6, §7, §8, §9, §10, §11, §12, §13, §14, §15, §16

[6] = test system: RPMI8226; test: CellTiter-Blue assay, haematological cell line; type: cell-based; conditions: Homo sapiens, RPMI-8226, 96 h; RPMI8226 (MM), four days treatment
Experimental: Cells were harvested from exponential phase cultures, counted and plated in 96 well flat-bottom microtiter plates at a cell density of 20,000-90,000 cells/well. After a 24 h recovery period to allow the cells to resume exponential growth, 10 μl of culture medium (four control wells/plate) or of culture medium with test compound were added. The compounds were applied in duplicates at ten concentrations and treatment continued for four days. After treatment of cells, 10 μl/well CellTiter-Blue® reagent was added. Following an incubation period of up to four hours, fluorescence (FU) was measured by using the EnVision Xcite multilabel reader (excitation λ=531 nm, emission λ=615 nm). The compounds were tested in two to four independent experiments for each cell line.

[7] = molecular target: Aurora A kinase (Homo sapiens (Human), UniProt O14965); test: Aurora A kinase 33P-ATP filter assay (Reaction Biology Corp.); type: biochemical
Experimental: as §5, §6, §7, §8, §9, §10, §11, §12, §13, §14, §15, §16

FLT3 kinase, sequence (P36888 27-993): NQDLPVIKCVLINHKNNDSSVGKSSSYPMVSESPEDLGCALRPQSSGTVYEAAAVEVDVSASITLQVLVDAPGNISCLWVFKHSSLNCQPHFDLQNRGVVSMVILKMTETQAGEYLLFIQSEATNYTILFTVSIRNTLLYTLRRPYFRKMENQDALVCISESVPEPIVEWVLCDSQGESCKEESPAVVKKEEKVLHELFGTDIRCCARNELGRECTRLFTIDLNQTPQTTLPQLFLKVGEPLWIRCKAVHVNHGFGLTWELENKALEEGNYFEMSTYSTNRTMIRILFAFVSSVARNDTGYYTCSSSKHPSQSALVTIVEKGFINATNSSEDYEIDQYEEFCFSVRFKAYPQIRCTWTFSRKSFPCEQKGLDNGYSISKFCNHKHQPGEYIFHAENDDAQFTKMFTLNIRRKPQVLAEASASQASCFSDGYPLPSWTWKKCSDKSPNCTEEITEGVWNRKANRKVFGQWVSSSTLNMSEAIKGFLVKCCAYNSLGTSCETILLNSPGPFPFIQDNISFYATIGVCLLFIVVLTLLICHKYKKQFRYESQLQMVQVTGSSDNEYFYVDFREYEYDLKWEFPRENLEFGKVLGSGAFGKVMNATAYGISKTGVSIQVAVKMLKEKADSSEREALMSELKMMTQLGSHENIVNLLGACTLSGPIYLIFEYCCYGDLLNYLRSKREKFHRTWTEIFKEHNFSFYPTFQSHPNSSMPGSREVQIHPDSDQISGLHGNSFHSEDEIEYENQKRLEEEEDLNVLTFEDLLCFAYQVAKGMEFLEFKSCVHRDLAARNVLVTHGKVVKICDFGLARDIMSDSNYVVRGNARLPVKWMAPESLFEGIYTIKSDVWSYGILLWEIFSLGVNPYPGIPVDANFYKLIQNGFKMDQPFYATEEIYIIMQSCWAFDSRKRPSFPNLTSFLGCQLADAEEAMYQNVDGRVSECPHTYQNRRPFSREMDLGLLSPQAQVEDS
Aurora A kinase, sequence (O14965 whole entry): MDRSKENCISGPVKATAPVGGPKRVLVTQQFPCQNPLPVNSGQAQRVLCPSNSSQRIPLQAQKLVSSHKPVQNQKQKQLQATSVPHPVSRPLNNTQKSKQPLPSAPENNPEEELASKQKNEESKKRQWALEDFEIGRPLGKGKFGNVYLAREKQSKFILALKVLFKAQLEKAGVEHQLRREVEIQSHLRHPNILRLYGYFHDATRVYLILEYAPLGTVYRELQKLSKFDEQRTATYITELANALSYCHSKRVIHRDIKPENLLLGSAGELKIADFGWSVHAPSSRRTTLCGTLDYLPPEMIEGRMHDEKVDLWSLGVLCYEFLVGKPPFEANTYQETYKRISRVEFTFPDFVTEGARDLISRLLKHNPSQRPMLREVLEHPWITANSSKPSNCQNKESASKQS
Aurora B kinase, sequence (Q96GD4 whole entry): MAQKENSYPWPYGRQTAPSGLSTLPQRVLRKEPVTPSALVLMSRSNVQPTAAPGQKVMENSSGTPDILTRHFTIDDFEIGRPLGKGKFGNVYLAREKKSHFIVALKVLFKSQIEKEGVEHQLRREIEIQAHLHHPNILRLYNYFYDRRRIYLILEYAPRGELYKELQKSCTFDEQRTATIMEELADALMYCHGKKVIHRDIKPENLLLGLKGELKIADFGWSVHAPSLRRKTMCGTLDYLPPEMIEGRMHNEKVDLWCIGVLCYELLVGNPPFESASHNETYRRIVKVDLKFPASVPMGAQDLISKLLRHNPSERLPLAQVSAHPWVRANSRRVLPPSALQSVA

| Structure (SMILES) | [Polyploidy] lowest concentration producing a distinct polyploid phenotype [1] [µM] | toxicity in xenograft study ([2]; 20 mg/kg IV BID) | effect on tumour growth (tumour volume) ([3]; 20 mg/kg IV BID) | tumour inhibitory rate (IR) ([3]; 20 mg/kg IV BID) [%] | IC50 [4] [nM] | IC50 [5] [nM] | IC50 [6] [nM] | IC50 [7] [nM] | toxicity in xenograft study ([2]; 30 mg/kg IV BID) | effect on tumour growth (tumour volume) ([3]; 30 mg/kg IV BID) | tumour inhibitory rate (IR) ([3]; 30 mg/kg IV BID) [%] |
| --- | --- | --- | --- | --- | --- | --- | --- | --- | --- | --- | --- |
| Cc1ccc2[nH]ccc2c1-c1nc(C(N)=O)c(-c2ccc(N3CCNC(C)(C)C3)cc2)o1 [Example 2, 2-(5-Methyl-1H-Indol-4-yl)-5-[4-(3,3-dimethyl-piperazin-1-yl)-phenyl]-oxazole-4-carboxylic acid amide] | 0.03 | without any obvious toxicity | completely inhibited the tumor growth | 98.13 | 0.77 | 5.9 | 2140 | 13.6 | – | – | – |
| Cc1cc(F)c2[nH]ccc2c1-c1nc(C(N)=O)c(-c2ccc(N3CCNC(C)(C)C3)cc2)o1 [Example 7, 2-(5-Methyl-7-Fluoro-1H-Indol-4-yl)-5-[4-(3,3-dimethyl-piperazin-1-yl)-phenyl]-oxazole-4-carboxylic acid amide] | 0.1 | – | – | – | 0.48 | – | – | 42.5 | without any obvious toxicity | completely inhibited the tumor growth | 98.24 |
